Assay results taken from US6811990B1, “Methods and compositions for coupled luminescent assays” (priority 2001, dated 2004).
Read-outs that look alike come from different tables or passages of the source.

Columns and labels:
G3PDH or PGK = assay: Stop reagent test in DeathTRAK reaction with G3PDH test enzyme; assay type: biochemical; conditions: ~3 mM final BPV, added after 21 minutes, with and without added PGK
Description: In another aspect, the present invention provides methods and compositions for a single-timepoint coupled luminescent assay, making use of a stop reagent to end the production of the high-energy molecule that is the luciferase substrate, while allowing the luciferase reaction to continue. In a preferred embodiment of this concept, an inhibitor of G3PDH or PGK is used to stop production of ATP in the DeathTRAK reactions of Examples 1 and 2. […] It is also possible to perform a single read without a stop reagent, but the stop reagent allows the read to be done at a time convenient to the user, multiple times, or for an extended period. […] Any molecule which inhibits G3PDH and/or PGK, but inhibits luciferase to a lesser or insignificant degree, might be used.
To a 0.5-mL aliquot of this cocktail, 0.0016 mL of 1:1,000,000-diluted PGK were added (termed “+PGK” cocktail). Two 0.045-mL aliquots of the standard unoptimized cocktail and two 0.045-mL aliquots of the “+PGK” cocktail were measured into a luminescent microtiter plate. 0.005 mL of 1:100,000-diluted G3PDH was transferred to each of these four aliquots of cocktail. […] Use of this or an alternative stop reagent allows the user to delay reading the plate, while maintaining the relative signal strengths of the samples.

E. coli = assay: Colony-forming unit (CFU) tests of antibiotic-treated cultures; assay type: cell-based; conditions: E. coli cultures plated at various dilutions
Group-A Streptococci [1] = system: Group-A Streptococci
Description: (§3) The A600 was 0.356. […] After washing the cells were grown for 90 minutes at 37C with 240 rpm shaking. Antibiotics or PBS (vehicle) were then added in 5 μL, and the protective cocktail containing dithiothreitol and protease inhibitor cocktail was added in a further 5 μL. The cells were incubated at 37C with 240 rpm shaking for a further 90 minutes, whereupon the DeathTRAK cocktail was added and the cytotoxicity read as described above for Gram negatives. The total-lysis agent, 10 μL of 2% Nonidet P-40, was then added, and the proliferation/viability signal was read as above for Gram negatives.

E. coli strain K1 [2] = assay: DeathTRAK cytotoxicity mode, antibiotics on E. coli
Description: (§1) FIGS. 13-15 illustrate the use of cytotoxicity/proliferation mode to characterize the effects of various antibiotics on E. coli cells. First, the cytotoxicity signal was obtained by adding the DeathTRAK reagent cocktail directly to the toxicity reaction, three hours after the antibiotics were added to the E. coli culture. The luminance was measured and recorded (FIG. 13), whereupon the lytic agent was added, and the luminance was immediately measured again (FIG. 14).
(§2) E. coli (strain K1, obtained from Dr. Craig Rubens of Children's Hospital and Regional Medical Center, Seattle, Wash.) were inoculated from a frozen permanent into 1-2 mL of LB, grown overnight, diluted 1:20 into LB, grown a further 106 minutes at 37C with 240 rpm shaking, harvested by centrifugation, washed twice with LB, and resuspended to a final A600 of 1.549. It was determined by colony-forming unit assays that an A600 of 2.18 corresponds to ˜3.02×10^8 cells/mL. This was diluted to 200,000/mL and a 10% volume of 10 mM dithiothreitol and 1% protease inhibitor cocktail in LB was added (yielding 0.1% protease inhibitor cocktail after mixing). 55 μL of this mixture was distributed to each test well of a 96-well white luminance microtiter plate, whereupon 5 μL of antibiotic or PBS (vehicle) was added. The plate was shaken at 240 rpm for 3 hours at 37C. 40 μL of DeathTRAK cocktail was then added and luminance was read for ˜8 minutes. The lytic agent was then made up as equal parts 6000 units/mL polymyxin B and 50% lysozyme, both in PBS. 10 μL of this lytic agent was added to each well and the second luminance readout (proliferation/viability) was taken.

E. coli strain K1 [3] = assay: DeathTRAK proliferation/viability mode after polymyxin B/lysozyme lysis, antibiotics on E. coli; assay type: cell-based; conditions: for Proliferation/Viability: E. coli, Table V, DeathTRAK readout after lytic agent
Description: as §1, §2

Group-A Streptococci [4] = assay: DeathTRAK proliferation/viability mode after Nonidet P-40 lysis, Group-A Streptococci; assay type: cell-based, Group-A Streptococcus; conditions: 90 minutes with antibiotic, after Nonidet P-40 lysis (FIG. 17)
Description: These are Gram positive organisms. […] However, both cytotoxicity and proliferation effects are seen. […] Finally, the result with gentamicin is distinctive.

Group-A Streptococci [5] = assay: DeathTRAK cytotoxicity mode, antibiotics on Group-A Streptococci; conditions: 90 minutes with antibiotic (FIG. 16)
Description: as §3

DeathTRAK signal = assay: Effect of detergent on the DeathTRAK signal; assay type: biochemical; conditions: at 0.1% Nonidet P-40; changes very little above approximately 0.1%
Description: FIG. 12 illustrates the use of cytotoxicity/proliferation mode to measure both the cytotoxic effects and the total cell number after addition of the detergent Nonidet P40 to the mammalian cell line 841 CON. Similar results have been obtained with the PC-3 prostate cancer and T24 bladder-cancer cell lines. In these experiments, the detergent is used as both the toxin and the final lytic agent. Thus the cytotoxicity signal in FIG. 12 represents the signal obtained after the indicated quantities of detergent were added to the cells, and the proliferation signal in the same figure represents the signals obtained after an additional 0.2% Nonidet P-40 was added to all the cells. […] Thus Nonidet P-40 can be used as the universal lytic agent for measuring proliferation of mammalian cells, provided that if it is desired to compare the cytotoxicity and proliferation signals, the final signal must be corrected for the inhibitory effect of the detergent. If the final detergent concentration used is above approximately 0.1%, then this correction will consist essentially of multiplication by a constant. However, if proliferation signals alone are to be compared, this correction is not necessary. Note that in FIG. 12, the proliferation signal is fairly constant. This is because each experiment began with the same number of cells seeded into each well. […]

[6] = E. coli K1, three hours with antibiotic, after lytic agent (FIG. 14)

Molecule | toxicity by CFU assay (E. coli) | Cytotoxicity (E. coli strain K1 [2]) | cytotoxicity signal (E. coli strain K1 [2]) | effect on proliferation/viability (E. coli strain K1 [3]; [6]) | Proliferation/Viability (E. coli strain K1 [3]) | proliferation/viability signal (Group-A Streptococci [4]) | cytotoxicity signal (Group-A Streptococci [5]) | further results
O=C(O)C(=O)CBr [BPV, bromopyruvic acid] |  |  |  |  |  |  |  | increase in luminance (ATP production) in DeathTRAK reaction (G3PDH or PGK): stopped the increase in luminance
CC1(C)S[C@@H]2[C@H](NC(=O)C(C(=O)O)c3ccccc3)C(=O)N2[C@H]1C(=O)O (some centres unmarked) [Carbenicillin] | toxic | + | strong cytotoxicity | strong inhibitory effect on proliferation/viability | + |  |  | cytotoxicity signal (Group-A Streptococci [1]): identified as a lytic agent
Nc1ccc(S(N)(=O)=O)cc1 [Sulfanilamide] |  | − | no toxicity | no toxicity or effect on proliferation/viability |  |  |  | 
CN[C@H](CC(C)C)C(=O)N[C@H]1C(=O)N[C@@H](CC(N)=O)C(=O)N[C@H]2C(=O)N[C@H]3C(=O)N[C@H](C(=O)N[C@H](C(=O)O)c4cc(O)cc(O)c4-c4cc3ccc4O)[C@H](O)c3ccc(c(Cl)c3)Oc3cc2cc(c3O[C@@H]2O[C@H](CO)[C@@H](O)[C@H](O)[C@H]2O[C@H]2C[C@](C)(N)[C@H](O)[C@H](C)O2)Oc2ccc(cc2Cl)[C@H]1O [Vancomycin] | toxic |  |  | slight inhibition of proliferation/viability | + | very strong reduction in the proliferation/viability signal | little or no direct cytotoxicity | cytotoxicity signal (E. coli strain K1 [2]; E. coli K1, three hours after antibiotics were added (FIG. 13)): slight but statistically significant toxicity; Cytotoxicity (E. coli strain K1 [2]; E. coli, Table V, DeathTRAK cytotoxicity readout): +
Gentamicin |  |  |  |  | + | strongly toxic | negative toxicity signal | Cytotoxicity (E. coli strain K1 [2]; E. coli K1, 90 minutes (FIG. 15)): no cytotoxicity; effect on proliferation/viability (E. coli strain K1 [3]; E. coli K1, similar experiment, 90 minutes (FIG. 15)): strong effect on proliferation/viability
Nonidet P-40 |  |  |  |  |  |  |  | inhibition of DeathTRAK signal (DeathTRAK signal): approximately 45%
